Measured values from US20100062441A1, “C-MET MUTATIONS AND USES THEREOF” (priority 2007, published 2010).
Values joined by “and” are separate entries in the source; they are usually repeats but may differ in a detail not shown here. Equal values may be shown once.

Experiments:
[1] = system: C. elegans N2 wild type
Description: (§1) To examine the effect of human c-met gene expression in C. elegans, both wild-type c-Met cDNA and mutant c-Met cDNA were individually micro-injected into young adult wild type N2 hermaphrodite gonads (gonad syncitium), at a concentration of 25 μg/ml. The constructs for the mutant c-Met cDNA were generated as described above. Control animals (N2) were injected with vector alone. Injected animals were individually cloned and their progeny were observed under dissecting microscope. Progenies were isolated and examined for visible morphological abnormalities such as defects in vulval formation, body morphology and locomotion. Individually cloned transgenic animals were further analyzed for fecundity and viability.
(§2) Animals in the progeny harboring a visible phenotype such as vulva defect, body morphology change, locomotion defect, and paralysis; and animals showing hyperactivity were isolated, individually cloned and examined with dissecting microscope. For detailed analysis of the phenotype, individual animals were mounted on an agar pad and observed under a Nikon Eclipse E600 fluorescence microscope equipped for Nomarski optics. Images were taken by a Hamamatsu Photonics CCD camera, and processed using the Metamorph digital imaging software (Siddiqui et al., Am J Physiol Lung Cell Mol Physiol 286, L1016-26 (2004)).
(§3) To determine whether a c-Met germline mutation alone is sufficient for lung cancer development or whether in order to develop lung cancer development a synergism of c-Met with smoking is necessary, the C. elegans transgenic animals described above were exposed to nicotine. Nicotine response experiments were performed in M9 buffer as previously described by Waggoner, et al. (Waggoner et al., J Neurosci 20, 8802-11 (2000)). Animals were cultured at 20° C. on nematode growth media (NGM) plates seeded with E. coli strain OP50. To examine the nicotine dose response, individual young adult hermaphrodites were placed in 6-well microtiter plate in M9 buffer at different concentrations of nicotine. Following one hour incubation with nicotine medium plates at 20° C., total numbers of eggs laid by each individual animal were counted.

[2] = system: R988C c-Met transgenic C. elegans
Description: as §1, §2, §3

[3] = system: T1010I c-Met transgenic C. elegans
Description: as §1, §2, §3

[4] = system: wild type human c-Met transgenic C. elegans; conditions: Wt c-Met
Description: as §1, §2, §3

[5] = system: reactive oxygen species (ROS) in MU melanoma cells; test: Reactive oxygen species measurement by DHE immunofluorescence; format: cell-based, human; conditions: HGF 40 ng/ml for 7.5 min; DHE
Description: 5×10^4 MU melanoma cells were plated in 35 mm petri dishes. After 24 hrs MU Melanoma cells were kept in serum free media containing 0.5% BSA with and without 5 μM SU11274 for 12 hrs. Cells were treated with 40 ng/ml HGF for 7.5 min, then treated with DHE 10 μM (molecular probes Inc, Eugene, Oreg.) for 30 min, after which they were visualized under a fluorescent Olympus microscope IX81, 20× objective, ND3 and Rhodamine filter sets. Fluorescence was then quantified using Image J and graphed.
The endogenous levels of reactive oxygen species (ROS) was also analyzed in MU melanoma cells with and without HGF treatment using DHE by fluorescence microscopy. DHE is a redox sensitive probe that has widely been used to detect intracellular superoxide anion. The relative levels of ROS were increased in response to HGF by 47%, and SU11274 decreased the ROS response to HGF to 3%.

[6] = system: NSCLC; conditions: in combination with chemotherapy; cited from earlier work
[7] = chronic exposure with nicotine (20 μm)
[8] = nicotine (20 μM) for 24 hours or more

CN1CCCC1c1cccnc1 (stereo not shown) [nicotine]
Body Shape Changes [1, 7]: 3% and 3 ± 0.21 %
Growth Arrest [1, 7]: 1.23% and 1.23 ± 0.19 %
Locomotion Defects [1, 7]: 1% and 1 ± 0.18 %
Paralysis [1, 7]: 2% and 2 ± 0.02 %
viability ([1]; in the presence of nicotine): 91.94%
vulval defects [1, 8]: 2%
Body Shape Changes [2, 7]: 18% and 18 ± 0.13 %
Growth Arrest [2, 7]: 22.9% and 22.9 ± 0.41 %
viability ([2]; in the presence of nicotine): 30.54%
vulval defects [2, 8]: 15%
Body Shape Changes [3, 7]: 21% and 21 ± 0.14 %
Growth Arrest [3, 7]: 29% and 29.0 ± 0.11 %
viability ([3]; in the presence of nicotine): 4.58%
vulval defects [3, 8]: 28%
Body Shape Changes [4, 7]: 12% and 12 ± 0.22 %
Growth Arrest [4, 7]: 9.72% and 9.72 ± 0.16 %
Locomotion Defects [4, 7]: 11% and 11 ± 0.09 %
Paralysis [4, 7]: 8% and 8 ± 0.08 %
viability ([4]; in the presence of nicotine): 65.06%
vulval defects [4, 8]: 6%

HGF: hepatocyte growth factor, the ligand for c-Met
increase of relative levels of ROS [5]: 47%

bevacizumab: targeted therapy against VEGF
enhancement of median overall survival [6]: 2.3 months
